# Assay results reported in patent US5155031A, “Use of pervanadate as an inhibitor of phosphotyrosine phosphatase” (priority 1990, dated 1992).
# Entries after “also recorded” stand apart in the source; their conditions may differ. Like-named read-outs stand apart in the source and are kept apart here.
# Tests used:
# alkaline phosphatase = alkaline phosphatase catalyzed dephosphorylation of the lectin-purified insulin receptor; assay type: biochemical
# Procedure: To do so, lectin-purified insulin receptor (6.0 fmol of insulin binding) was preincubated with 10^-7 M insulin for 60 min at 4° C. Phosphorylation was initiated by addition of [γ^-32 P]ATP, and the insulin receptor was immunoprecipitated by incubating with anti-insulin receptor antibody (140 μg of protein) for 4h at 4° C. followed by incubation with protein A-SEPHAROSE * beads for 1 h at 4° C. The immunoprecipitate was washed twice with 50 mM HEPES buffer, pH 7.6, containing 0.1% TRITON X-100 * detergent and 0.1% SDS and once with the above buffer without SDS. After being washed, the immunoprecipitate was incubated with or without the indicated concentrations of vanadate, H2 O2, or pervanadate in the presence or absence of a 15 units.mL solution of alkaline phosphatase for 60 min at 4° C. with vigorous shaking. This sample was washed twice with 50 mM HEPES buffer, pH 7.6, containing 0.1% TRITON X-100 * detergent and subjected to SDS-PAGE followed by radioautography as shown in FIG. 1. Densitometric scanning of the radioautographs was done with a ZEINER * soft laser scanning densitometer (Model SL-504-XL).
# [1] = system: rat hepatocyte phosphotyrosine phosphatase; assay: insulin receptor tyrosine dephosphorylation catalyzed by crude phosphotyrosine phosphatase from rat liver microsomes; assay type: biochemical
# Procedure: Since vanadate and pervanadate may have different specificities for various phosphoprotein phosphatases, their inhibitory effects were separated tested on insulin receptor tyrosine dephosphorylation catalyzed by a crude preparation of phosphotyrosine phosphatase activity extracted from rat liver microsomes.
# The samples were processed as in example 1, except that after being washed, the immunoprecipitate was incubated with or without 10^-4 M vanadate, 10^-4 M H2 O2 or 10^-4 m pervanadate in the presence or absence of an equal volume, 50 μL, of rat hepatocyte phosphotyrosine phosphatase (as described above) for 20 min at 30° C. with vigorous shaking.
# tyrosine phosphatases = settings: cited from earlier work
# insulin receptor [2] = molecular target: T1, insulin receptor (Rattus norvegicus, UniProt P15127); assay: Insulin Receptor Autophosphorylation Assay; assay type: biochemical; settings: 10^-3 to 10^-7 M, 15 min, 37° C.; WGA-purified adipocyte insulin receptors
# T1 construct: Insulin receptors were solubilized and partially purified by WGA chromatography; endogenous in cells; host or cells: isolated rat adipocytes
# Procedure: To elucidate further the mechanism of action of pervanadate, this compound was added in vitro to solubilized WGA-purified adipocyte insulin receptors.
# Isolated rat adipocytes were incubated with different concentrations of pervanadate (10^-3 to 10^-7 M), 10 ng/mL (1.7×10^-9 M) insulin, or no additions for 15 min at 37° C. Insulin receptors were solubilized and partially purified by WGA chromatography. […] An aliquot of insulin receptor (5-10 fmol of insulin binding) was used in the autophosphorylation assay as described below, in the presence or absence of in vitro insulin, followed by SDS-PAGE and radioautography.
# The Insulin Receptor Autophosphorylation Assay proceeded as follows: lectin-purified insulin receptor (5-10 fmol of insulin binding) was incubated with or without 10^-7 M insulin in a 50 mM HEPES buffer containing 8 mM MnCl2, 10 mM MgCl2, 270 μM dithiothreitol, and 10 μg/mL bovine serum albumin for 1 h at 4° C., in a total volume of 90 μL. The phosphorylation reaction was initiated by the addition of 10 μL of diluted [γ^-32 P]ATP (10 Ci/mmol) to a final concentration of 50 μM, and the reaction mixture was further incubated for 15 min at 4° C. […]
# insulin receptor [3] = settings: adipocytes, cited from earlier work
# tyrosine kinase = settings: cited from earlier work
# [4] = stability of the pervanadate solution; assay type: physicochemical; settings: after catalase 200 μg/mL to remove residual H2 O2
# Procedure: The vanadate solution used in the examples presented below was prepared as described in Kadota et al. supra, to avoid changes in pH and the generation of colored decavanadate (orange-yellow) or vanadyl ion, VO^2+ (blue). The solution of pervanadate was prepared by mixing vanadate or vanadate containing substance with H2 O2 or a peroxide-containing substance (10^-3 M unless otherwise indicated) for 15 min at 22° C. This was followed by the addition of catalase, 200 μg/mL, to remove residual H2 O2. […] The concentration of pervanadate generated is denoted by the vanadate concentration added to the mixture.
# [5] = increasing concentrations, 15 units/mL alkaline phosphatase, 60 min, 4° C., SDS-PAGE, radioautography
# T1 sequence (P15127 764-1383 limits assumed): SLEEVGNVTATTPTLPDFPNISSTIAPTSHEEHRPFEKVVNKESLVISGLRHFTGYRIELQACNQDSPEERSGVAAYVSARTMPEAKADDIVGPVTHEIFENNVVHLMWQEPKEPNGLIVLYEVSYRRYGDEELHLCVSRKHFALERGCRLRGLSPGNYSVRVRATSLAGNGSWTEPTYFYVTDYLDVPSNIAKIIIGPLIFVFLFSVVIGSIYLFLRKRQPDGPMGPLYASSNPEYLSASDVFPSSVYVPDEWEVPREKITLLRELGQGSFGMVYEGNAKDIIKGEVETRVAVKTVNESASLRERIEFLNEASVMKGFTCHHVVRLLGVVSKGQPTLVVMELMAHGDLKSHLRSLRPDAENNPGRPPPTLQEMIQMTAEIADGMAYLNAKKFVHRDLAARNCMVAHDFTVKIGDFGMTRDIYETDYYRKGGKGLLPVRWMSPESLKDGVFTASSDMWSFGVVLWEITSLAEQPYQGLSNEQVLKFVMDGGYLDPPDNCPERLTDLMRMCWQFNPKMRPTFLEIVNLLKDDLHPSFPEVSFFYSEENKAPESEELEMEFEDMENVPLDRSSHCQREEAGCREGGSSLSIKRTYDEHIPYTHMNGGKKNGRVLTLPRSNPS
# T1 sequence (P15127 27-759 partner limits assumed): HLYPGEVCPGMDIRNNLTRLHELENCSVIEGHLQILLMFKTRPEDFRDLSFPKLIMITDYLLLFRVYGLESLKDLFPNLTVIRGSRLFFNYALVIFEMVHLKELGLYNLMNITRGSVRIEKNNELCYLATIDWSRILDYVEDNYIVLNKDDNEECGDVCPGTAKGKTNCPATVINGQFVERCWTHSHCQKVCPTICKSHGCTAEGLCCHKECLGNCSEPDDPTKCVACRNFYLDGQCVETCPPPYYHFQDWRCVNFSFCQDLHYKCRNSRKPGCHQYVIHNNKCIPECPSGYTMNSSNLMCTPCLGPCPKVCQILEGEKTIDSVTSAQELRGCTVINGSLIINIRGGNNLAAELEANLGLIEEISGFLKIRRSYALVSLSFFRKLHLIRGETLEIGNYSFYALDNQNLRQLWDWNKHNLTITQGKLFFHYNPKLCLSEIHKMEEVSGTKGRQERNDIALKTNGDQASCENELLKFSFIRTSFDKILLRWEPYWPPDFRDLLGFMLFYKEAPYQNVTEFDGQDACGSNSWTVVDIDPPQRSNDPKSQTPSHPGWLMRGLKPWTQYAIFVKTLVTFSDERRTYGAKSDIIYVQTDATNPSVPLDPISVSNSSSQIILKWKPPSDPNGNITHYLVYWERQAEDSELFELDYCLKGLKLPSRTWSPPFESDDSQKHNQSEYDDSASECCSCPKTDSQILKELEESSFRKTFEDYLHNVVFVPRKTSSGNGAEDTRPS
Compound,inhibition of alkaline phosphatase-catalyzed dephosphorylation of 32P-labeled insulin receptor β-subunit (alkaline phosphatase; 10^-3 M alone),inhibition of insulin receptor tyrosine dephosphorylation catalyzed by rat hepatocyte phosphotyrosine phosphatase [1],inhibition of tyrosine phosphatases (tyrosine phosphatases),inhibition of alkaline phosphatase-catalyzed dephosphorylation of 32P-labeled insulin receptor β-subunit (alkaline phosphatase; [5]),"inhibition of insulin receptor tyrosine dephosphorylation catalyzed by rat hepatocyte phosphotyrosine phosphatase ([1]; 10^-4 M, 20 min, 30° C.)",stimulation of insulin receptor autophosphorylation (insulin receptor [2]),in situ tyrosine phosphorylation of the insulin receptor (insulin receptor [3]),activation of the insulin receptor kinase (insulin receptor [3]; time course versus insulin),stimulation of autophosphorylation of exogenous tyrosine kinase activity (tyrosine kinase),time the peroxidized form of vanadate is stable without further addition of H2 O2 [4] [h]
"OO [H2 O2, hydrogen peroxide, reference compound]",without effect,without effect,,,,,,,,
[O]=[V]([O-])([O-])[O-] [vanadate],,,inhibit tyrosine phosphatases,inhibited the dephosphorylation of the ^32 P-labeled insulin receptor in a dose- dependent manner,inhibited dephosphorylation but with less efficacy,,,,,
pervanadate,,,,much less than that by vanadate alone; also recorded: does not inhibit,powerfully inhibited tyrosine dephosphorylation; also recorded: potent inhibitor; also recorded: more efficacious than vanadate,did not significantly stimulate autophosphorylation,maximal effects similar to that of insulin,activates the insulin receptor kinase but with a slower time course than insulin,does not either stimulate,2
